Our source for the inhibition values is PMC9516332 (Frontiers in Oncology, 2022).

What all share (assay): Kinase panel profiling at 1 µmol/L (MSA or IMAP), percentage inhibition
Common to all, as to format: biochemical

For experiment [1], the target named is T1, panel of 255 wild-type kinases (Homo sapiens, UniProt O14965).
T1 sequence (O14965 1-403): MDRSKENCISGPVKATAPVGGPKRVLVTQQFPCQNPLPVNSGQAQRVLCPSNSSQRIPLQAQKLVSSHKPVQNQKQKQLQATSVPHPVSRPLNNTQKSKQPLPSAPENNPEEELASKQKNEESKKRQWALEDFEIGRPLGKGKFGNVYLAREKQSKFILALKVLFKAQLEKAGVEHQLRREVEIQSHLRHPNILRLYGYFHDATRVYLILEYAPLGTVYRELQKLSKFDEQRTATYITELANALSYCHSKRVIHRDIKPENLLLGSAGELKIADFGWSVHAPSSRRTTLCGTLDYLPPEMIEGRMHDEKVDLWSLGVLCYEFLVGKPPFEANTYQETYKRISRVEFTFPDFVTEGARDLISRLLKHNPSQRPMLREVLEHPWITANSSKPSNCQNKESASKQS

Experiment [2] deals with T2, panel of 255 wild-type kinases (Homo sapiens, UniProt O94806).
T2 sequence (O94806 1-890): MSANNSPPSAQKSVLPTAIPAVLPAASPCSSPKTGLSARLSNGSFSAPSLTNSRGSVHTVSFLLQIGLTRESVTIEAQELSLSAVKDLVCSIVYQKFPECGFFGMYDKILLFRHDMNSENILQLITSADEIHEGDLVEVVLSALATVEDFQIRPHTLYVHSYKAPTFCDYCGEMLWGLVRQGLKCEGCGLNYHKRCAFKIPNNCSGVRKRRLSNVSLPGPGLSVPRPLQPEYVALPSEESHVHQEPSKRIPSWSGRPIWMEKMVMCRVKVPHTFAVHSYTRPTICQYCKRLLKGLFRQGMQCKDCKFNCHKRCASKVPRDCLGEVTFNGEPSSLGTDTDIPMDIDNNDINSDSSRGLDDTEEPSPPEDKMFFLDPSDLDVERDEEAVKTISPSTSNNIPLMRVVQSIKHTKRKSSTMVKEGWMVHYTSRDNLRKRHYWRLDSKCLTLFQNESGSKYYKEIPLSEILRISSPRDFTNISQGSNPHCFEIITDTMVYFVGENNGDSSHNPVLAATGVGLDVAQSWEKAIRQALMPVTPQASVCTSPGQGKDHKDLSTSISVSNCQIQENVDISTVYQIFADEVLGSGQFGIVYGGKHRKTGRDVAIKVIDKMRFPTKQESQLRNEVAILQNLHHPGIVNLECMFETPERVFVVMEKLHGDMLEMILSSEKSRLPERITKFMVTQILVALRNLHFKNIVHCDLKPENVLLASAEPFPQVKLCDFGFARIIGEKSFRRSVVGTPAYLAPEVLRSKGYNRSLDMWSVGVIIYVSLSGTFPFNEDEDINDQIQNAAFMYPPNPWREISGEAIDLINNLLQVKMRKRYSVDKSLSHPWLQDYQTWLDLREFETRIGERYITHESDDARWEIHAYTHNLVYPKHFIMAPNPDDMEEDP
Particulars: read-out: %-inhibition at 1 µmol/L, PKD3.

In experiment [3] the target is panel of 255 wild-type kinases (Homo sapiens, UniProt P07333). The note with it: read-out: %-inhibition at 1 µmol/L, FMS.
Experiment [4] deals with panel of 255 wild-type kinases (Homo sapiens, UniProt Q16644). The note with it: read-out: %-inhibition, MAPKAPK3.
Experiment [5] deals with panel of 255 wild-type kinases (Homo sapiens, UniProt Q8IU85). The note with it: read-out: %-inhibition CaMK1δ.
The target in experiment [6] is T3, panel of 255 wild-type kinases (Homo sapiens, UniProt Q92630).
T3 sequence (Q92630 1-601): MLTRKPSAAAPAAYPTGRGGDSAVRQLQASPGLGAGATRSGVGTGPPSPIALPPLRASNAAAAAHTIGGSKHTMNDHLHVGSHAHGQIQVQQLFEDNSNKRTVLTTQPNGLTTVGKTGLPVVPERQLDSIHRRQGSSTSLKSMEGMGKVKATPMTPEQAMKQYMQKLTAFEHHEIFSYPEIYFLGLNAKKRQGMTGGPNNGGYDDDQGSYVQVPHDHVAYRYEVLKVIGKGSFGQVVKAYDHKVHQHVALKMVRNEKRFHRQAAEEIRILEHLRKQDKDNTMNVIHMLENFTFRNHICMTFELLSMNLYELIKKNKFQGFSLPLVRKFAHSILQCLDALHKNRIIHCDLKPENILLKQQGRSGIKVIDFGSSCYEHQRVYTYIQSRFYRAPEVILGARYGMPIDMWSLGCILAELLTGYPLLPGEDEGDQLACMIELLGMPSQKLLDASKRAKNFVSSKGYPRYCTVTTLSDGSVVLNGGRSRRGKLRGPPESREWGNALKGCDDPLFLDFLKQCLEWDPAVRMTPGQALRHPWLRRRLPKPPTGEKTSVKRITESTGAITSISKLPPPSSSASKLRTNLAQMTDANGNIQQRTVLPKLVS
The note with it: read-out: %-inhibition at 1 µmol/L, DYRK2.

Experiment [7] has as its target panel of 255 wild-type kinases (Homo sapiens, UniProt Q9Y6E0). Particulars: read-out: %-inhibition, MST3.
The mark [8] stands for this setting: AurA kinase assay, 1 µmol/L single concentration, read-out: %-inhibition AurA.
The mark [9] stands for this setting: AurA/TPX2 kinase assay, 1 µmol/L single concentration, read-out: %-inhibition AurA/TPX2.
Setting [10] is: kinase PKD3, 1 µmol/L single concentration.
Where [11] appears, read: kinase FMS, 1 µmol/L single concentration.
Where [12] appears, read: MAPKAPK3, 1 µmol/L single concentration.
Setting [13] is: CaMK1δ kinase assay, 1 µmol/L single concentration.
The mark [14] stands for this setting: kinase DYRK2, 1 µmol/L single concentration.
Setting [15] is: MST3, 1 µmol/L single concentration.

The structures appear in SMILES notation. Like-named read-outs stand apart in the source and are kept apart here.

As for `Cc1nc(NC(=O)N2CCC[C@H]2C(N)=O)sc1-c1ccnc(C(C)(C)C(F)(F)F)c1` [alpelisib], the inhibition at 1 µM was -0.801% in experiment [1] (setting [8]); -0.57% in experiment [1] (setting [9]); -2.46% in experiment [2] (setting [10]); 14% in experiment [3] (setting [11]); -13% in experiment [4] (setting [12]); 2% in experiment [5] (setting [13]). Also, the inhibition at 1 µM is 7% in experiment [6] (setting [14]) and -4.63% in experiment [7] (setting [15]).
In the case of `Cn1cc(-c2cc3c(N4CCN(c5ncc([C@@](C)(N)c6ccc(F)cc6)cn5)CC4)ncnn3c2)cn1` [avapritinib], the inhibition at 1 µM was 4.62% in experiment [1] (setting [8]); 10% in experiment [1] (setting [9]); 8% in experiment [2] (setting [10]); -4% in experiment [4] (setting [12]); -4.32% in experiment [5] (setting [13]); 56% in experiment [6] (setting [14]). Further, in experiment [7] (setting [15]), the inhibition at 1 µM was 12%.
For the compound `Cn1cnc2c(F)c(Nc3ccc(Br)cc3F)c(C(=O)NOCCO)cc21` [binimetinib], the inhibition at 1 µM in experiment [1] (setting [8]) was -3%; in experiment [1] (setting [9]), -4%; in experiment [2] (setting [10]), 0.731%; in experiment [3] (setting [11]), 7%; in experiment [4] (setting [12]), -11%; in experiment [5] (setting [13]), -8%. Moreover, the inhibition at 1 µM in experiment [6] (setting [14]) was 6.52%; in experiment [7] (setting [15]), 1.89%.
Regarding `CNC(=O)c1ccc(-c2cnc3ncc(Cc4ccc5ncccc5c4)n3n2)cc1F` [capmatinib], the inhibition at 1 µM in experiment [1] (read-out: %-inhibition AurA) is 3.78%; in experiment [1] (read-out: %-inhibition AurA/TPX2), -6%; in experiment [2], -3.34%; in experiment [3] it was 13%; in experiment [4], -11%; in experiment [5] it was -10%. Moreover, the figures for the inhibition at 1 µM in experiment [6] and in experiment [7] were 8% and 0.296%, respectively.
For `COc1cc2ncnc(Nc3ccc(F)c(Cl)c3)c2cc1NC(=O)/C=C/CN1CCCCC1` [dacomitinib], the inhibition at 1 µM in experiment [1] (setting [8]) was -1.72%; in experiment [1] (setting [9]) it was 1%; in experiment [2] (setting [10]), 8%; in experiment [3] (setting [11]) it was 8.55%; in experiment [4] (setting [12]), -25%; in experiment [5] (setting [13]), 1.43%. Further, the inhibition at 1 µM in experiment [6] (setting [14]) was found to be 38%; in experiment [7] (setting [15]), 27%.
In the case of `C[C@H](Nc1ncnc2nc[nH]c12)c1cc2cccc(Cl)c2c(=O)n1-c1ccccc1` [duvelisib], the inhibition at 1 µM was -4.54% in experiment [1] (setting [8]); 1.81% in experiment [1] (setting [9]); -3.52% in experiment [2] (setting [10]); 2.22% in experiment [3] (setting [11]); -13% in experiment [4] (setting [12]); 6% in experiment [5] (setting [13]). Besides, the inhibition at 1 µM came to 8% in experiment [6] (setting [14]) and 0.418% in experiment [7] (setting [15]).
As for `COC(=O)N[C@@H](C)CNc1nccc(-c2cn(C(C)C)nc2-c2cc(Cl)cc(NS(C)(=O)=O)c2F)n1` [encorafenib], the inhibition at 1 µM in experiment [1] (setting [8]) is 0.211%; in experiment [1] (setting [9]), -3.31%; in experiment [2] (setting [10]) it was 5%; in experiment [3] (setting [11]) it was 8%; in experiment [4] (setting [12]), -15%; in experiment [5] (setting [13]), -7%. The figures for the inhibition at 1 µM in experiment [6] (setting [14]) and in experiment [7] (setting [15]) were 11% and 7%, respectively.
As to `CN1CCN(c2ccc(C(=O)Nc3n[nH]c4ccc(Cc5cc(F)cc(F)c5)cc34)c(NC3CCOCC3)c2)CC1` [entrectinib], the inhibition at 1 µM in experiment [1] (setting [8]) is 81%; in experiment [1] (setting [9]), 75%; in experiment [2] (setting [10]), 3%; in experiment [3] (setting [11]), 86%; in experiment [4] (setting [12]), -10%; in experiment [5] (setting [13]), 16%. For the same compound, the results for the inhibition at 1 µM in experiment [6] (setting [14]) and in experiment [7] (setting [15]) were 11% and 7.48%, respectively.
For `CCc1nc(C(N)=O)c(Nc2ccc(N3CCC(N4CCN(C)CC4)CC3)c(OC)c2)nc1NC1CCOCC1` [gilteritinib], the inhibition at 1 µM in experiment [1] (setting [8]) is 80%; in experiment [1] (setting [9]) it was 71%; in experiment [2] (setting [10]) it was 53%; in experiment [3] (setting [11]), 104%; in experiment [4] (setting [12]) it was -16%; in experiment [5] (setting [13]), 39%. In addition, the inhibition at 1 µM was 39% in experiment [6] (setting [14]) and 5% in experiment [7] (setting [15]).
